Where two headings read alike, the source gives them in different places. Residues, ends and D or L forms follow the SMILES beside them.
What was measured:
[1] = system: E. coli ATCC25922; assay type: cell-based, Escherichia coli
Description: (§1) The Yersinia ruckeri strain was kindly provided by Prof. Kurt Buchmann, University of Copenhagen, Faculty of Health and Medical Sciences, and the Flavobacterium psychrophilum strain was kindly provided by Prof. Inger Dalsgaard, DTU, Denmark. BW25113 is the Escherichia coli wild-type strain, a derivative of the F^-,λ^- E. coli K12 strain BD792 which was used in generating the KEIO collection. E. coli ATCC25922 is a clinical isolate, serotype O6 and is often used as control strain in antimicrobial susceptibility testing. All strains were grown in Mueller-Hinton-II medium, except L. monocytogenes which was grown in BHI medium and F. psychrophilum which was grown in TYES medium (Tryptone yeast extract plus salts). Incubation took place aerobically at 37°C, except for Y. ruckeri and A. salmonicida, which were grown aerobically at RT (20°C), C. jejuni NCTC11168 which was grown under microaerophilic conditions at 42°C and F. psychrophilum 1947 which was grown under aerobic conditions at 15°C. All plates were incubated for 18–20 hours, except the F. psychrophilum plates, which were incubated for 72 hours.
All plates were incubated for 18–20 hours, except the F. psychrophilum plates which were incubated for 72 hours.
All the MIC measurements were carried out in duplicate.

[2] = system: E. coli ATCC25922
Description: The minimum inhibitory concentrations (MICs) of the AMPs were measured in 96-well microtiter plates according to the Clinical and Laboratory Standards Institute (CLSI, formerly National Committee for Clinical Laboratory Standards [NCCLS]). Briefly, liquid Mueller-Hinton-II medium containing increasing concentrations of AMPs is inoculated with a defined number of cells (approx. 10^5 CFUs/ml) in 96-well microtiter plates (polypropylene), whereas each plate also includes a positive growth control and a negative control (sterile control). After incubation, the MIC is determined by the lowest concentration showing no visible growth. All plates were incubated for 18–20 hours, except the F. psychrophilum plates which were incubated for 72 hours. […]

[3] = system: BW25113 wild-type; assay: MIC in LPS backgrounds; assay type: cell-based, Escherichia coli; conditions: E. coli BW25113 wild-type; CLSI; triplicates
Description: as §1
(§2) The minimum inhibitory concentrations (MICs) of the AMPs were measured in 96-well microtiter plates according to the Clinical and Laboratory Standards Institute (CLSI, formerly National Committee for Clinical Laboratory Standards [NCCLS]). Briefly, liquid Mueller-Hinton-II medium containing increasing concentrations of AMPs is inoculated with a defined number of cells (approx. 10^5 CFUs/ml) in 96-well microtiter plates (polypropylene), whereas each plate also includes a positive growth control and a negative control (sterile control). After incubation, the MIC is determined by the lowest concentration showing no visible growth. All plates were incubated for 18–20 hours, except the F. psychrophilum plates which were incubated for 72 hours.

[4] = system: BW25113 ΔrfaC; assay type: cell-based, Escherichia coli; conditions: E. coli BW25113 ΔrfaC; CLSI; triplicates
Description: as §1, §2

[5] = system: BW25113 ΔrfaE; assay type: cell-based, Escherichia coli; conditions: E. coli BW25113 ΔrfaE; CLSI; triplicates
Description: as §1, §2

[6] = system: BW25113 ΔrfaF; assay type: cell-based, Escherichia coli; conditions: E. coli BW25113 ΔrfaF; CLSI; triplicates
Description: as §1, §2

[7] = system: BW25113 ΔrfaG; assay type: cell-based, Escherichia coli; conditions: E. coli BW25113 ΔrfaG; CLSI; triplicates
Description: as §1, §2

[8] = system: ATCC25922 ΔrfaC; assay type: cell-based, Escherichia coli; conditions: E. coli ATCC25922 ΔrfaC; CLSI; triplicates
Description: as §1, §2
(§3) Construction of knock-out mutants of E. coli ATCC25922 were constructed using the λ-Red recombinase gene replacement system. Primers for amplification of the npt gene of pKD4 are listed in S1 Table. The correct double-crossover and recombination event was confirmed by primers listed in S1 Table and by sequencing. Finally, the kanamycin cassette was removed.

[9] = system: ATCC25922 ΔrfaE; assay type: cell-based, Escherichia coli; conditions: E. coli ATCC25922 ΔrfaE; CLSI; triplicates
Description: as §1, §2, §3

[10] = system: ATCC25922 ΔrfaF; assay type: cell-based, Escherichia coli; conditions: E. coli ATCC25922 ΔrfaF; CLSI; triplicates
Description: as §1, §2, §3

[11] = system: ATCC25922 ΔrfaG; assay type: cell-based, Escherichia coli; conditions: E. coli ATCC25922 ΔrfaG; CLSI; triplicates
Description: as §1, §2, §3

[12] = target: T1, proteinase K (Parengyodontium album, UniProt P06873); assay: Protease stability: MIC after incubation with proteinase K; assay type: in vitro ADME; conditions: for Antimicrobial Activity MIC: proteinase K, protease:AMP 1:100 (w/w), 100 mM Tris-HCl pH 7.5, 37°C, test strain E. coli ATCC25922, triplicates
T1 construct: purchased NEB P8107S
T1 sequence (P06873 106-384): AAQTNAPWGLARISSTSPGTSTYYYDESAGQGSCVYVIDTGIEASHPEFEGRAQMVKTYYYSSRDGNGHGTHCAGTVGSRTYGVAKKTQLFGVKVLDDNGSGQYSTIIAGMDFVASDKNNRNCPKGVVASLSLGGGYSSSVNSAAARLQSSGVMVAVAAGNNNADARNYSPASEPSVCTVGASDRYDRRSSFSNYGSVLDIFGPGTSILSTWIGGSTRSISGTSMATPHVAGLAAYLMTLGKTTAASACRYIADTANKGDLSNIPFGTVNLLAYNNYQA
Description: as §2
(§4) AMPs were heated at 70°C or 90° for 5, 15 or 30 minutes. An untreated control, which was kept at RT, was used as a control. After incubation at 70°C or 90°C, the minimum inhibitory concentrations (MICs) of the peptides were measured in 96-well microtiter plates according the Clinical and Laboratory Standards Institute (CLSI, formerly National Committee for Clinical Laboratory Standards [NCCLS]) […] After incubation, the samples were cooked for 10 minutes at 90°C to inactivate the protease. Afterwards, the antimicrobial activity was determined by measuring the minimal inhibitory concentration (see Antimicrobial susceptibility testing)). E. coli ATCC25922 was used as a test strain.

[13] = target: T2, trypsin (Bos taurus, UniProt P00760); assay: Protease stability: MIC after incubation with trypsin; assay type: in vitro ADME; conditions: for Antimicrobial Activity MIC: trypsin, protease:AMP 1:100 (w/w), trypsin-ultra reaction buffer, 37°C, test strain E. coli ATCC25922, triplicates
T2 construct: purchased NEB P8101
T2 sequence (P00760 24-246): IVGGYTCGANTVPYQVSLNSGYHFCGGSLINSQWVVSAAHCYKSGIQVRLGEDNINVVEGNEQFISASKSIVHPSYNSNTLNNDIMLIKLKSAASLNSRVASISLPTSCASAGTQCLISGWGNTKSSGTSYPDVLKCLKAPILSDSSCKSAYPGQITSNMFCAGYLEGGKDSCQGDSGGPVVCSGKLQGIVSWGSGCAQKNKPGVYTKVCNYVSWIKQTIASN
Description: as §2, §4

Row | SMILES | Antimicrobial Activity MIC [1] [µg/mL] | Antimicrobial Activity MIC [2] [µg/mL] | Antimicrobial Activity MIC [3] [µg/mL] | Antimicrobial Activity MIC [4] [µg/mL] | Antimicrobial Activity MIC [5] [µg/mL] | Antimicrobial Activity MIC [6] [µg/mL] | Antimicrobial Activity MIC [7] [µg/mL] | Antimicrobial Activity MIC [8] [µg/mL] | Antimicrobial Activity MIC [9] [µg/mL] | Antimicrobial Activity MIC [10] [µg/mL] | Antimicrobial Activity MIC [11] [µg/mL] | also measured
1 | CC[C@H](C)[C@H](NC(=O)[C@H](CCCCN)NC(=O)[C@H](CCCCN)NC(=O)[C@H](CC(C)C)NC(=O)[C@H](CCCCN)NC(=O)[C@H](CCC(=O)O)NC(=O)[C@H](CCCCN)NC(=O)[C@@H](NC(=O)[C@H](CCCCN)NC(=O)[C@H](CC(N)=O)NC(=O)[C@H](CCCNC(=N)N)NC(=O)[C@H](Cc1ccccc1)NC(=O)[C@H](CCCCN)NC(=O)[C@H](CCCNC(=N)N)NC(=O)[C@H](CC(C)C)NC(=O)[C@H](CCCNC(=N)N)NC(=O)[C@H](CCCCN)NC(=O)[C@H](CCCNC(=N)N)NC(=O)[C@H](CC(C)C)NC(=O)CN)[C@@H](C)CC)C(=O)NCC(=O)N[C@@H](CCC(N)=O)C(=O)N[C@@H](CCCCN)C(=O)N[C@H](C(=O)N[C@@H](CCC(N)=O)C(=O)NCC(=O)N[C@@H](CC(C)C)C(=O)N[C@@H](CC(C)C)C(=O)N1CCC[C@H]1C(=O)N[C@@H](CCCCN)C(=O)N[C@@H](CC(C)C)C(=O)N[C@@H](C)C(=O)N1CCC[C@H]1C(=O)N[C@@H](CCCNC(=N)N)C(=O)N[C@H](C(=O)N[C@@H](CC(=O)O)C(=O)N[C@@H](Cc1ccc(O)cc1)C(=O)O)[C@@H](C)O)[C@@H](C)CC [Cap18] (H-GLRKRLRKFRNKIKEKLKKIGQKIQGLLPKLAPRTDY-OH) | 4 | 8 | 4 to 8 | 4 | 4 | 4 | 4 | 2 | 2 | 2 | 2 | 
2 | CNC(C)C1CCC(N)C(OC2C(N)CC(N)C(OC3OCC(C)(O)C(NC)C3O)C2O)O1 (stereo not shown) [Gentamicin] |  |  |  |  |  |  |  |  |  |  |  | antimicrobial activity after protease (in words) ([12]; proteinase K for 30 minutes, control antibiotic): retained its full antimicrobial activity; Antimicrobial Activity MIC ([12]; 0 min): 1 µg/mL; Antimicrobial Activity MIC ([12]; 0.5 min, then 10 min 90°C): 1 µg/mL; Antimicrobial Activity MIC ([12]; 2 min, then 10 min 90°C): 1 µg/mL; Antimicrobial Activity MIC ([12]; 5 min, then 10 min 90°C): 1 µg/mL; Antimicrobial Activity MIC ([12]; 15 min, then 10 min 90°C): 1 µg/mL; Antimicrobial Activity MIC ([12]; 30 min, then 10 min 90°C): 1 µg/mL; antimicrobial activity after protease (in words) ([13]; trypsin for 30 minutes, control antibiotic): retained its full antimicrobial activity; Antimicrobial Activity MIC ([13]; 0 min): 1 µg/mL; Antimicrobial Activity MIC ([13]; 0.5 min, then 10 min 90°C): 1 µg/mL; Antimicrobial Activity MIC ([13]; 2 min, then 10 min 90°C): 1 µg/mL; Antimicrobial Activity MIC ([13]; 5 min, then 10 min 90°C): 1 µg/mL; Antimicrobial Activity MIC ([13]; 15 min, then 10 min 90°C): 1 µg/mL; Antimicrobial Activity MIC ([13]; 30 min, then 10 min 90°C): 1 µg/mL
3 | CC[C@H](C)[C@H](NC(=O)CNC(=O)[C@H](CCC(=O)O)NC(=O)[C@H](CO)NC(=O)[C@@H](NC(=O)[C@H](CCCNC(=N)N)NC(=O)[C@H](CCCCN)NC(=O)[C@H](CCCCN)NC(=O)[C@H](C)NC(=O)[C@H](CO)NC(=O)[C@H](CC(N)=O)NC(=O)[C@H](CCC(=O)O)NC(=O)[C@H](CC(C)C)NC(=O)[C@H](CCCCN)NC(=O)[C@H](CCCCN)NC(=O)[C@H](C)NC(=O)[C@@H](NC(=O)[C@H](CCCCN)NC(=O)[C@H](CO)NC(=O)[C@H](CC(C)C)NC(=O)[C@H](Cc1c[nH]c2ccccc12)NC(=O)[C@@H](N)CO)[C@@H](C)O)[C@@H](C)CC)C(=O)N[C@@H](C)C(=O)N[C@H](C(=O)N[C@@H](C)C(=O)N[C@H](C(=O)N[C@@H](CCC(N)=O)C(=O)NCC(=O)NCC(=O)N1CCC[C@H]1C(=O)N[C@@H](CCCNC(=N)N)C(=O)O)[C@@H](C)CC)[C@@H](C)CC [Cecropin P1] (H-SWLSKTAKKLENSAKKRISEGIAIAIQGGPR-OH) | 32 | 16 | 16 to 32 | 8 | 8 | 4 | 16 | 8 | 8 | 8 | 16 | 
4 | CC[C@H](C)[C@H](NC(=O)[C@H](CCCCN)NC(=O)[C@H](Cc1c[nH]c2ccccc12)NC(=O)[C@H](CCCNC(=N)N)NC(=O)[C@@H](N)CCCNC(=N)N)C(=O)N[C@H](C(=O)N[C@H](C(=O)N[C@H](C(=O)N[C@@H](CCCNC(=N)N)C(=O)N[C@@H](Cc1c[nH]c2ccccc12)C(=O)N[C@@H](CCCNC(=N)N)C(=O)N[C@@H](CCCNC(=N)N)C(N)=O)[C@@H](C)CC)C(C)C)C(C)C [Sub5-NH2] (H-RRWKIVVIRWRR-NH2) | 4 |  | 4 to 8 | 2 | 2 | 2 | 2 | 1 | 1 | 1 | 1 | 

Source: paper PMC4684357, “Comparative Evaluation of the Antimicrobial Activity of Different Antimicrobial Peptides against a Range of Pathogenic Bacteria” (PLoS ONE, 2015)
